Laboratory results: patent publication US9844550B2, “Phtalazinone derivatives and manufacturing process thereof” (ILDONG PHARM CO., LTD., priority 2013, dated 2017)

Tested on: MDA-MB-436 breast cancer cell line
Assay: Cell viability assay (MDA-MB-436)
Format: cell-based
Conditions: Homo sapiens, 144 h; MDA-MB-436 cells, treated 6 days
Method: 2. Cell Viability Assay (MDA-MB-436)
Cell viability assay was performed by using MDA-MB-436 cell line to measure cytotoxicity of compounds in the present invention. MDA-MB-436 breast cancer cell line was seeded into 96-well plates at 37° C. under 5% CO2 atmosphere using DMEM/F12 (Gibco) containing 10% FBS (Hyclone). After 24 hr incubation, cells were treated with the invented compounds at various concentrations for 6 days. The medium was changed every 3 day. 6 days later, A fluorescence reagent was used to determine the IC50 values.

Compound	IC50 [nM]
CC1(NC2CN(C(=O)c3cc(Cc4n[nH]c(=O)c5ccccc45)ccc3F)C2)CC1 [Compound I-85, 4-(4-fluoro-3-(3-((1-methylcyclopropyl)amino)azetidine-1-carbonyl)benzyl)phthalazin-1(2H)-one]	≤ 5
C[C@@H](NC1CN(C(=O)c2cc(Cc3n[nH]c(=O)c4ccccc34)ccc2F)C1)C(C)(C)C [Compound I-86, (R)-4-(3-(3-((3,3-dimethylbutan-2-yl)amino)azetidine-1-carbonyl)-4-fluorobenzyl)phthalazin-1(2H)-one]	5 to 50
C[C@H](NC1CN(C(=O)c2cc(Cc3n[nH]c(=O)c4ccccc34)ccc2F)C1)C(C)(C)C [Compound I-87, (S)-4-(3-(3-((3,3-dimethylbutan-2-yl)amino)azetidine-1-carbonyl)-4-fluorobenzyl)phthalazin-1(2H)-one]	300 to 1000
CC(C)[C@@H](C)NC1CN(C(=O)c2cc(Cc3n[nH]c(=O)c4ccccc34)ccc2F)C1 [Compound I-88, (R)-4-(4-fluoro-3-(3-((3-methylbutan-2-yl)amino)azetidine-1-carbonyl)benzyl)phthalazin-1(2H)-one]	≤ 5
CC(C)[C@H](C)NC1CN(C(=O)c2cc(Cc3n[nH]c(=O)c4ccccc34)ccc2F)C1 [Compound I-89, (S)-4-(4-fluoro-3-(3-((3-methylbutan-2-yl)amino)azetidine-1-carbonyl)benzyl)phthalazin-1(2H)-one]	5 to 50
COCC1(NC2CN(C(=O)c3cc(Cc4n[nH]c(=O)c5ccccc45)ccc3F)C2)CC1 [Compound I-90, 4-(4-fluoro-3-(3-((1-(methoxymethyl)cyclopropyl)amino)azetidine-1-carbonyl)benzyl)phthalazin-1(2H)-one]	50 to 300
C#CCCNC1CN(C(=O)c2cc(Cc3n[nH]c(=O)c4ccccc34)ccc2F)C1 [Compound I-91, 4-(3-(3-(but-3-yn-1-ylamino)azetidine-1-carbonyl)-4-fluorobenzyl)phthalazin-1(2H)-one]	50 to 300
C=C(C)CNC1CN(C(=O)c2cc(Cc3n[nH]c(=O)c4ccccc34)ccc2F)C1 [Compound I-92, 4-(4-fluoro-3-(3-((2-methylallyl)amino)azetidine-1-carbonyl)benzyl)phthalazin-1(2H)-one]	5 to 50
CC(C)(CO)CNC1CN(C(=O)c2cc(Cc3n[nH]c(=O)c4ccccc34)ccc2F)C1 [Compound I-93, 4-(4-fluoro-3-(3-((3-hydroxy-2,2-dimethylpropyl)amino)azetidine-1-carbonyl)benzyl)phthalazin-1(2H)-one]	50 to 300
N#CC1(CNC2CN(C(=O)c3cc(Cc4n[nH]c(=O)c5ccccc45)ccc3F)C2)CC1 [Compound I-94, 1-(((1-(2-fluoro-5-((4-oxo-3,4-dihydrophthalazin-1-yl)methyl)benzoyl)azetidin-3-yl)amino)methyl)cyclopropanecarbonitrile]	300 to 1000
O=C(c1cc(Cc2n[nH]c(=O)c3ccccc23)ccc1F)N1CC(NCC(F)(F)F)C1 [Compound I-95, 4-(4-fluoro-3-(3-((2,2,2-trifluoroethyl)amino)azetidine-1-carbonyl)benzyl)phthalazin-1(2H)-one]	50 to 300
O=C(c1cc(Cc2n[nH]c(=O)c3ccccc23)ccc1F)N1CC(N[C@@H]2CCNC2)C1 [Compound I-96, (R)-4-(4-fluoro-3-(3-(pyrrolidin-3-ylamino)azetidine-1-carbonyl)benzyl)phthalazin-1(2H)-one]	300 to 1000
N#CC1(NC2CN(C(=O)c3cc(Cc4n[nH]c(=O)c5ccccc45)ccc3F)C2)CCCC1 [Compound I-98, 1-((1-(2-fluoro-5-((4-oxo-3,4-dihydrophthalazin-1-yl)methyl)benzoyl)azetidin-3-yl)amino)cyclopentanecarbonitrile]	300 to 1000
CCC(C#N)NC1CN(C(=O)c2cc(Cc3n[nH]c(=O)c4ccccc34)ccc2F)C1 (stereo not drawn) [Compound I-101, 2-((1-(2-fluoro-5-((4-oxo-3,4-dihydrophthalazin-1-yl)methyl)benzoyl)azetidin-3-yl)amino)butanenitrile]	300 to 1000
CC(C)C(C#N)NC1CN(C(=O)c2cc(Cc3n[nH]c(=O)c4ccccc34)ccc2F)C1 (stereo not drawn) [Compound I-102, 2-((1-(2-fluoro-5-((4-oxo-3,4-dihydrophthalazin-1-yl)methyl)benzoyl)azetidin-3-yl)amino)-3-methylbutanenitrile]	300 to 1000
N#CC(NC1CN(C(=O)c2cc(Cc3n[nH]c(=O)c4ccccc34)ccc2F)C1)C1CC1 (stereo not drawn) [Compound I-103, 2-cyclopropyl-2-((1-(2-fluoro-5-((4-oxo-3,4-dihydrophthalazin-1-yl)methyl)benzoyl)azetidin-3-yl)amino)acetonitrile]	300 to 1000
O=C(c1cc(Cc2n[nH]c(=O)c3ccccc23)ccc1F)N1CC(NC2(C(F)(F)F)CCC2)C1 [Compound I-104, 4-(4-fluoro-3-(3-((1-(trifluoromethyl)cyclobutyl)amino)azetidine-1-carbonyl)benzyl)phthalazin-1(2H)-one]	300 to 1000

Compound	IC50 [nM]
O=C(c1cc(Cc2n[nH]c(=O)c3ccccc23)ccc1F)N1CC(Nc2ncccn2)C1 [Compound I-109, 4-(4-fluoro-3-(3-(pyrimidin-2-ylamino)azetidine-1-carbonyl)benzyl)phthalazin-1(2H)-one]	300 to 1000
O=C(c1cc(Cc2n[nH]c(=O)c3ccccc23)ccc1F)N1CC[C@H](Nc2ncccn2)C1 [Compound I-110, (S)-4-(4-fluoro-3-(3-(pyrimidin-2-ylamino)pyrrolidine-1-carbonyl)benzyl)phthalazin-1(2H)-one]	300 to 1000
CN(c1ccc(Cl)nn1)[C@H]1CCN(C(=O)c2cc(Cc3n[nH]c(=O)c4ccccc34)ccc2F)C1 [Compound I-111, (S)-4-(3-(3-((6-chloropyridazin-3-yl)(methyl)amino)pyrrolidine-1-carbonyl)-4-fluorobenzyl)phthalazin-1(2H)-one]	300 to 1000
O=C(c1cc(Cc2n[nH]c(=O)c3ccccc23)ccc1F)N1CC[C@H](Nc2ccc(Cl)nn2)C1 [Compound I-112, (S)-4-(3-(3-((6-chloropyridazin-3-yl)amino)pyrrolidine-1-carbonyl)-4-fluorobenzyl)phthalazin-1(2H)-one]	300 to 1000
CN(c1cccnn1)[C@H]1CCN(C(=O)c2cc(Cc3n[nH]c(=O)c4ccccc34)ccc2F)C1 [Compound I-113, (S)-4-(4-fluoro-3-(3-(methyl(pyridazin-3-yl)amino)pyrrolidine-1-carbonyl)benzyl)phthalazin-1(2H)-one]	300 to 1000
CN(c1ccc(Cl)nn1)C1CN(C(=O)c2cc(Cc3n[nH]c(=O)c4ccccc34)ccc2F)C1 [Compound I-115, 4-(3-(3-((6-chloropyridazin-3-yl)(methyl)amino)azetidine-1-carbonyl)-4-fluorobenzyl)phthalazin-1(2H)-one]	300 to 1000
O=C(c1cc(Cc2n[nH]c(=O)c3ccccc23)ccc1F)N1CC(N(c2ncccn2)C2CCC2)C1 [Compound I-116, 4-(3-(3-(cyclobutyl(pyrimidin-2-yl)amino)azetidine-1-carbonyl)-4-fluorobenzyl)phthalazin-1(2H)-one]	300 to 1000
O=C(c1cc(Cc2n[nH]c(=O)c3ccccc23)ccc1F)N1CC[C@@H](Nc2ccc(Cl)nn2)C1 [Compound I-118, (R)-4-(3-(3-((6-chloropyridazin-3-yl)amino)pyrrolidine-1-carbonyl)-4-fluorobenzyl)phthalazin-1(2H)-one]	300 to 1000
CCN(c1ncccn1)[C@@H]1CCN(C(=O)c2cc(Cc3n[nH]c(=O)c4ccccc34)ccc2F)C1 [Compound I-121, (R)-4-(3-(3-(ethyl(pyrimidin-2-yl)amino)pyrrolidine-1-carbonyl)-4-fluorobenzyl)phthalazin-1(2H)-one]	300 to 1000
O=C(c1cc(Cc2n[nH]c(=O)c3ccccc23)ccc1F)N1CC[C@@H](Nc2nccs2)C1 [Compound I-124, (R)-4-(4-fluoro-3-(3-(thiazol-2-ylamino)pyrrolidine-1-carbonyl)benzyl)phthalazin-1(2H)-one]	50 to 300
C#Cc1cnc(N[C@@H]2CCN(C(=O)c3cc(Cc4n[nH]c(=O)c5ccccc45)ccc3F)C2)nc1 [Compound I-125, (R)-4-(3-(3-((5-ethynylpyrimidin-2-yl)amino)pyrrolidine-1-carbonyl)-4-fluorobenzyl)phthalazin-1(2H)-one]	≤ 5
N#Cc1cnc(N[C@@H]2CCN(C(=O)c3cc(Cc4n[nH]c(=O)c5ccccc45)ccc3F)C2)nc1 [Compound I-126, (R)-2-((1-(2-fluoro-5-((4-oxo-3,4-dihydrophthalazin-1-yl)methyl)benzoyl)pyrrolidin-3-yl)amino)pyrimidine-5-carbonitrile]	5 to 50
O=C(c1cc(Cc2n[nH]c(=O)c3ccccc23)ccc1F)N1CC[C@@H](Nc2ccccn2)C1 [Compound I-128, (R)-4-(4-fluoro-3-(3-(pyridin-2-ylamino)pyrrolidine-1-carbonyl)benzyl)phthalazin-1(2H)-one]	5 to 50
CN(C)C(=O)c1cccnc1N[C@@H]1CCN(C(=O)c2cc(Cc3n[nH]c(=O)c4ccccc34)ccc2F)C1 [Compound I-129, (R)-2-((1-(2-fluoro-5-((4-oxo-3,4-dihydrophthalazin-1-yl)methyl)benzoyl)pyrrolidin-3-yl)amino)-N,N-dimethylnicotinamide]	300 to 1000
O=C(c1cc(Cc2n[nH]c(=O)c3ccccc23)ccc1F)N1CC(NCc2ccccc2)C1 [Compound I-133, 4-(3-(3-(benzylamino)azetidine-1-carbonyl)-4-fluorobenzyl)phthalazin-1(2H)-one]	50 to 300
O=C(c1cc(Cc2n[nH]c(=O)c3ccccc23)ccc1F)N1CC(NCCC(F)(F)F)C1 [Compound I-134, 4-(4-fluoro-3-(3-((3,3,3-trifluoropropyl)amino)azetidine-1-carbonyl)benzyl)phthalazin-1(2H)-one]	50 to 300
